Source: US9562899B2, “Method of detecting OXA-048 carbapenemase producing bacteria” (BIOMÉRIEUX, priority 2012, dated 2017)
Like-named read-outs stand apart in the source and are kept apart here.

What was measured:
NDM-1 strains = type: cell-based, Enterobacteriaceae; settings: Ex 2, MIC in mg/l
Source text: (§1) Optimization of the Detection Specificity by Introducing Specific Inhibitors Inhibition of Class B Strains (NDM, VIM, IMP) by Adding EDTA
(§2) Identical to that used to determine the temocillin MICs by agar dilution (example 1).
(§3) For each temocillin concentration, the following concentrations of active EDTA will be tested in the form of disodium EDTA: 0, 1.77, 2.12, 2.47 and 2.83 mmol/l.
(§4) Method: identical to the method used in example 1.

VIM strains = type: cell-based, Enterobacteriaceae; settings: Ex 2, MIC in mg/l
Source text: as §1, §2, §3, §4

CO[C@@]1(NC(=O)C(C(=O)O)c2ccsc2)C(=O)N2[C@@H](C(=O)O)C(C)(C)S[C@@H]21 (some centres unmarked) [temocillin]
6: No. of VIM strains with MIC 150 (VIM strains; 0 mmol/l of EDTA)
17: No. of VIM strains with MIC ≦50 (VIM strains; 1.77 mmol/l of active EDTA) | No. of VIM strains with MIC ≦50 (VIM strains; 2.12 mmol/l of active EDTA) | No. of VIM strains with MIC ≦50 (VIM strains; 2.47 mmol/l of active EDTA) | No. of VIM strains with MIC ≦50 (VIM strains; 2.83 mmol/l of active EDTA)
22: No. of NDM-1 strains with MIC ≦50 (NDM-1 strains; 0 mmol/l of EDTA)
1: No. of NDM-1 strains with MIC 200 (NDM-1 strains; 0 mmol/l of EDTA) | No. of NDM-1 strains with MIC 150 (NDM-1 strains; 2.12 mmol/l of active EDTA) | No. of NDM-1 strains with MIC 150 (NDM-1 strains; 2.47 mmol/l of active EDTA) | No. of VIM strains with MIC 200 (VIM strains; 0 mmol/l of EDTA) | No. of VIM strains with MIC >300 (VIM strains; 0 mmol/l of EDTA)
2: No. of NDM-1 strains with MIC 150 (NDM-1 strains; 1.77 mmol/l of active EDTA)
4: No. of NDM-1 strains with MIC 150 (NDM-1 strains; 0 mmol/l of EDTA)
26: No. of NDM-1 strains with MIC ≦50 (NDM-1 strains; 2.12 mmol/l of active EDTA) | No. of NDM-1 strains with MIC ≦50 (NDM-1 strains; 2.47 mmol/l of active EDTA)
27: No. of NDM-1 strains with MIC ≦50 (NDM-1 strains; 2.83 mmol/l of active EDTA)
25: No. of NDM-1 strains with MIC ≦50 (NDM-1 strains; 1.77 mmol/l of active EDTA)
0: No. of NDM-1 strains with MIC 300 (NDM-1 strains; 0 mmol/l of EDTA) | No. of NDM-1 strains with MIC >300 (NDM-1 strains; 0 mmol/l of EDTA) | No. of NDM-1 strains with MIC 200 (NDM-1 strains; 1.77 mmol/l of active EDTA) | No. of NDM-1 strains with MIC 300 (NDM-1 strains; 1.77 mmol/l of active EDTA) | No. of NDM-1 strains with MIC >300 (NDM-1 strains; 1.77 mmol/l of active EDTA) | No. of NDM-1 strains with MIC 200 (NDM-1 strains; 2.12 mmol/l of active EDTA) | No. of NDM-1 strains with MIC 300 (NDM-1 strains; 2.12 mmol/l of active EDTA) | No. of NDM-1 strains with MIC >300 (NDM-1 strains; 2.12 mmol/l of active EDTA) | No. of NDM-1 strains with MIC 200 (NDM-1 strains; 2.47 mmol/l of active EDTA) | No. of NDM-1 strains with MIC 300 (NDM-1 strains; 2.47 mmol/l of active EDTA) | No. of NDM-1 strains with MIC >300 (NDM-1 strains; 2.47 mmol/l of active EDTA) | No. of NDM-1 strains with MIC 150 (NDM-1 strains; 2.83 mmol/l of active EDTA) | No. of NDM-1 strains with MIC 200 (NDM-1 strains; 2.83 mmol/l of active EDTA) | No. of NDM-1 strains with MIC 300 (NDM-1 strains; 2.83 mmol/l of active EDTA) | No. of NDM-1 strains with MIC >300 (NDM-1 strains; 2.83 mmol/l of active EDTA) | No. of VIM strains with MIC 300 (VIM strains; 0 mmol/l of EDTA) | No. of VIM strains with MIC 150 (VIM strains; 1.77 mmol/l of active EDTA) | No. of VIM strains with MIC 200 (VIM strains; 1.77 mmol/l of active EDTA) | No. of VIM strains with MIC 300 (VIM strains; 1.77 mmol/l of active EDTA) | No. of VIM strains with MIC >300 (VIM strains; 1.77 mmol/l of active EDTA) | No. of VIM strains with MIC 150 (VIM strains; 2.12 mmol/l of active EDTA) | No. of VIM strains with MIC 200 (VIM strains; 2.12 mmol/l of active EDTA) | No. of VIM strains with MIC 300 (VIM strains; 2.12 mmol/l of active EDTA) | No. of VIM strains with MIC >300 (VIM strains; 2.12 mmol/l of active EDTA) | No. of VIM strains with MIC 150 (VIM strains; 2.47 mmol/l of active EDTA) | No. of VIM strains with MIC 200 (VIM strains; 2.47 mmol/l of active EDTA) | No. of VIM strains with MIC 300 (VIM strains; 2.47 mmol/l of active EDTA) | No. of VIM strains with MIC >300 (VIM strains; 2.47 mmol/l of active EDTA) | No. of VIM strains with MIC 150 (VIM strains; 2.83 mmol/l of active EDTA) | No. of VIM strains with MIC 200 (VIM strains; 2.83 mmol/l of active EDTA) | No. of VIM strains with MIC 300 (VIM strains; 2.83 mmol/l of active EDTA) | No. of VIM strains with MIC >300 (VIM strains; 2.83 mmol/l of active EDTA)
9: No. of VIM strains with MIC ≦50 (VIM strains; 0 mmol/l of EDTA)
